Values of other authors in patent publication US4650664A (Dr. Karl Thomae GmbH, priority 1982, dated 1987).

Details: human

SMILES: OCCN(CCO)c1nc(N2CCCCC2)c2nc(N(CCO)CCO)ncc2n1 [Mopidamol, 2,6-bis-(diethanolamino)-4-piperidinopyrimido[5,4-d]pyrimidine]
- Excretion in the urine: only excreted in the urine to a very small extent
